Laboratory results published in paper PMC7708446, “^18F-meta-fluorobenzylguanidine (^18F-mFBG) to monitor changes in norepinephrine transporter expression in response to therapeutic intervention in neuroblastoma models” (Scientific Reports, 2020).

Columns and labels:
NET-1 [1] = assay: Radiotracer cell uptake after AZD2014 pre-treatment, Kelly cells; assay type: cell-based, human; settings: for increase of ^18F-mFBG uptake: vs untreated control
Experimental: (§1) To investigate potential changes in NET-1 function following an AZD2014-induced increase in protein expression, ^18F-mFBG and ^123I-mIBG cell uptake assays were performed in Kelly and SK-N-BE(2)C cells incubated with the drug (0–500 nM) for 24 and 72 h. […] Perhaps due to the already high expression of NET-1, increase in radiotracer uptake was less evident in SK-N-BE(2)C cells (39 ± 9% and 62 ± 5%, respectively). […].
(§2) To test the response of cell uptake using the mTOR1/2 inhibitor AZD2014 (0–500 nM) (vistusertib, Stratech Scientific, Ely, UK), a stock solution of the drug (10 mM) in dimethyl sulfoxide (DMSO, Sigma Aldrich, Gillingham, UK) was initially prepared and then diluted in culture medium to a final DMSO concentration of < 0.1%. Radiotracer uptake was assessed in cells 24 and 72 h after incubation with AZD2014. The uptake was normalised to cell viability as performed using the CellTiter-Glo assay (Promega, Southampton, UK). The data are expressed as the average of n = 3 independent experiments (performed in triplicate) ± SEM.

SK-N-BE(2)C cells = assay: Cell viability (CellTiter-Glo) after 72 h AZD2014, SK-N-BE(2)C; assay type: cell-based; settings: Homo sapiens, read-out: GI50 (concentration that reduced cell viability by 50%)
Experimental: (§3) To assess the cellular response to mTORC1/2 inhibition, Kelly and SK-N-BE(2)C cell lines, both of which over-express MYCN protein (Fig. 1b), were incubated with AZD2014 (0 to 1 µM) for 72 h. […] Key substrates of AZD2014- induced mTORC1/2 inhibition were assessed by WB.
(§4) Supplementary Figure 5: NB cell viability after 72 h treatment with AZD2014 (0–1 µM) analysed by Celltiter Glo assay. Data presented as mean ± SEM, n ≥ 3 per group, performed in triplicate. Graph is generated using GraphPad Prism (v 8.4.1), https://www.graphpad.com.

NET-1 [2] = molecular target: T1, NET-1 (Homo sapiens, UniProt P23975); assay: Radiotracer cell uptake after AZD2014 pre-treatment, SK-N-BE(2)C cells; assay type: cell-based; settings: for increase of ^18F-mFBG uptake: vs untreated control
T1 construct: SK-N-SH, SK-N-BE(2)C, Kelly, NBLS human NB cell lines; endogenous in cells; host or cells: SK-N-SH, SK-N-BE(2)C, Kelly, NBLS human neuroblastoma cell lines
Experimental: as §1, §2

Kelly xenografts = assay: AZD2014 treatment of Kelly xenograft mice (body weight, tumour growth); assay type: in vivo; settings: 25 mg/kg/day
Experimental: All studies were conducted in compliance with licenses issued under the UK Animals (Scientific Procedures) Act 1986 and approved by the Institute of Cancer Research Animal Welfare and Ethical Review Body (AWERB) according to the United Kingdom National Cancer Research Institute Guidelines for Animal Welfare in Cancer Research (project license PCC916B22, Animals in Science Regulation Unit, Home Office Science, London, UK)[65]. […]; 20–22 g) obtained from an in-house breeding colony were used in the studies. Animals were housed in a temperature-controlled facility with 12 h on–12 h off light cycle and provided water and laboratory rodent food ad libitum. Subcutaneous xenografts were generated by injection of either Kelly (5 × 10^6/0.1 mL PBS/Matrigel 30% v/v; BD Matrigel Matrix, BD Bioscience, San Jose, California, US) or SK-N-BE(2)C (1 × 10^6/0.1 mL PBS/Matrigel) into the lower flank. For the treatment studies, AZD2014 stock solution in DMSO was diluted in PEG400 to a final concentration of 2 mg/mL (10% DMSO maximum). When tumours reached ~ 100 mm^3 (calliper measurements using formula: Volume = (Width(2) × Length)/2), mice were treated daily, for a total of either 1, 3 or 7 days, by oral gavage with AZD2014 (20 or 25 mg/kg/day) or vehicle control. Mice were monitored daily for body weight or other adverse effects.

Kelly cells = assay: Cell viability (CellTiter-Glo) after 72 h AZD2014, Kelly; assay type: cell-based; settings: Homo sapiens, read-out: GI50 (concentration that reduced cell viability by 50%)
Experimental: as §3, §4

mTORC1/2 [3] = assay: Western blot of mTORC1/2 substrates in Kelly and SK-N-BE(2)C cells; assay type: cell-based, human
Experimental: (§5) Western blotting (WB) was performed as previously described. Antibodies were obtained from Cell Signalling Technologies (London, UK) unless stated otherwise: GAPDH, beta-actin, p-Akt^S473, Akt, p-4EBP1^T37/46, p-S6^S240/244, S6, N-MYC (Merck Millipore, Watford, UK), NET-1 (mAbTechnologies, Stone Mountain, Georgia), anti-rabbit HRP, anti-mouse HRP. Blots were visualised with SuperSignal West Pico and Femto Chemiluminescent Substrate (Thermo Fisher Scientific, Loughborough, UK) and ChemiDoc XRS + System (BioRad, Watford, UK). Data were processed and band density analysed with ImageJ and Image Lab 6.0 (BioRad, Watford, UK).

mTORC1/2 [4] = assay: Ex vivo IHC/Western blot of mTOR signalling in treated tumours; design: species or system mice; settings: Kelly xenografts 25 mg/kg/day, 3 days
Experimental: as §5
Formalin-fixed (10% v/v) paraffin-embedded tumours were sectioned to a thickness of 5 µm. Tumour sections underwent heat-induced epitope retrieval with a citric acid based antigen unmasking solution (H3300, Vector Laboratories, Peterborough, UK). The primary NET-1 antibody (AMT-002, Alomone Labs, Jerusalem, Israel), p-S6^S240/244 and p-4EBP1^T37/46 were added and incubated overnight at 4 °C. Endogenous peroxidases were blocked (2% H2O2 in methanol, 10 min, RT) before incubation with a secondary HRP-conjugated antibody. For chromogen development, slides were processed using a diaminobenzidine (DAB)-peroxidase substrate kit (4 min, Immpact DAB, SK-4105, Vector Laboratories, Peterborough, UK). […]

NET-1 [5] = assay: Ex vivo Western blot of NET-1 in tumour lysates of treated animals; design: species or system mice
Experimental: as §5

NET-1 [6] = assay: Western blot of total NET-1 protein in SK-N-BE(2)C cells after AZD2014; assay type: cell-based, human; settings: seen at 24 h, maintained at 72 h
Experimental: Given the potential role of Akt in NET-1 protein synthesis and surface expression, we further looked at NET-1 protein levels following AZD2014 treatment. […] In Kelly cells, the WB analysis was not sensitive enough to detect and accurately quantify the inherently low expression of the target protein.
as §5

NET-1 [7] = molecular target: T1, NET-1; assay: ^18F-mFBG / ^123I-mIBG uptake in NB cell lines with and without desipramine; assay type: cell-based; settings: 1 h at 37 °C, rank among Kelly, SK-N-SH, NBLS
Excerpt: Figure 1 (a) Simplified radiosynthesis scheme of ^18F-mFBG by copper-mediated deborylation. (b) Total NET-1 protein expression in selected NB cell lines determined by Western blot. Full length blots are presented in Supplementary Figure WB1. […] Data are presented as mean ± SEM, n ≥ 2 per group, performed in triplicate. Graphs are generated using GraphPad Prism (v 8.4.1), https://www.graphpad.com.
For each cell line the cell-associated radioactivity was normalised to the number of cells and then each group was presented as a percentage of the signal acquired for SK-N-BE(2)C cells (mean of n = 3 independent experiments performed in triplicate ± SEM).

[8] = Biodistribution and PET statements pooled over Kelly and SK-N-BE(2)C xenograft-bearing mice; assay type: in vivo; settings: ^123I-mIBG 24 h p.i.
Experimental: When the tumours reached approximately 100–200 mm^3, mice were anaesthetised with an isoflurane/O2 mixture (1.5–2.0% v/v) and intravenously injected with either ^18F-mFBG (~ 7.5 MBq) or ^123I-mIBG (~ 20 MBq). Mice were then imaged using an Albira PET/SPECT/CT scanner (Bruker, Coventry, UK). […] Acquisition, reconstruction and image analysis were performed as described previously. Following the final scan, the mice were sacrificed and the major organs were excised, weighed and their associated radioactivity was measured using a γ-counter. Biodistribution and image quantification were expressed as a percentage of injected dose per gram of tissue (%ID/g), whereby 1 cm^3 on PET acquisitions were assumed to equal 1 g (n ≥ 3 mice ± SD).

NB tumours = system: NB tumours; design: method as in PMID 15490487, PMID 3181182, PMID 22700000; settings: NB patients; cited from earlier work
[9] = Kelly and SK-N-BE(2)C, Western blot

T1 sequence (P23975 whole entry): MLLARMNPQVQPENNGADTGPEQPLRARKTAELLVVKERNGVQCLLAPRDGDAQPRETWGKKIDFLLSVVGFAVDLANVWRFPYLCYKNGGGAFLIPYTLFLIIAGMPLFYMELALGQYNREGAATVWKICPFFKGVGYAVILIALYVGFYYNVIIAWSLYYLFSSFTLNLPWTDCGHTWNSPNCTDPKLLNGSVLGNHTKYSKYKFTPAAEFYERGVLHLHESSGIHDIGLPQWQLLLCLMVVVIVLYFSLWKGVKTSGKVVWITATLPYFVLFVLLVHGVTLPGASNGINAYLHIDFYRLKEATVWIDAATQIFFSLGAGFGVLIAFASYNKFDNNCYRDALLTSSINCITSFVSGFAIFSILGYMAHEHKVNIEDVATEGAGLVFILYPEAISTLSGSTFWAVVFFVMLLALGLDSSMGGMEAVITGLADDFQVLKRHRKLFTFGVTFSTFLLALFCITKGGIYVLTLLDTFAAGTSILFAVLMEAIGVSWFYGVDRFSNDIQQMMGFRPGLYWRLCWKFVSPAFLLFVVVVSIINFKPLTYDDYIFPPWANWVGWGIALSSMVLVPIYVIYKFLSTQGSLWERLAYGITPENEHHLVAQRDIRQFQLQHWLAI

CNC(=O)c1cccc(-c2ccc3c(N4CCOC[C@@H]4C)nc(N4CCOC[C@@H]4C)nc3n2)c1 [AZD2014]
increase of ^18F-mFBG uptake (NET-1 [1]; 200 nM AZD2014, 72 h): 128 ± 23% | increase of ^18F-mFBG uptake (NET-1 [1]; 500 nM AZD2014, 72 h): 292 ± 27% | ^123I-mIBG and ^18F-mFBG uptake (NET-1 [1]; AZD2014 0–500 nM, 24 h): concentration-dependent increase | GI50 (SK-N-BE(2)C cells): 307 nM | increase of ^18F-mFBG uptake (NET-1 [2]; 200 nM AZD2014, 72 h): 39 ± 9% | increase of ^18F-mFBG uptake (NET-1 [2]; 500 nM AZD2014, 72 h): 62 ± 5% | ^123I-mIBG and ^18F-mFBG uptake (NET-1 [2]; AZD2014 0–500 nM, 24 h): concentration-dependent increase | body weight lost compared to the vehicle control (Kelly xenografts; oral gavage, 3 days post-treatment initiation): ~ 10% | tumour growth (Kelly xenografts; Kelly xenografts, n = 3, p < 0.0001): impeded | GI50 (Kelly cells): 476 nM | MYCN protein expression (mTORC1/2 [3]; [9]): not robustly reduced | phosphorylation of S6 and 4EBP1 (mTORC1/2 [3]; [9]): concentration dependent decrease | p-Akt^S473 inhibition (mTORC1/2 [3]; both cell lines, after 72 h incubation): not sustained | p-Akt^S473 (mTORC1/2 [3]; both cell lines, early time points (3–12 h)): concentration-dependent downregulation | mTORC1/2 inhibition in vivo (p-S6^S240/244, p-4EBP1^T37/46 IHC) (mTORC1/2 [4]): failed to inhibit | NET-1 expression in tumour lysates, control vs treated (NET-1 [5]; Kelly, 25 mg/kg/day 3 days, p = 0.84, n = 2): no difference | NET-1 expression in tumour lysates (NET-1 [5]; SK-N-BE(2)C, 20 mg/kg/day 3 days, not significant (p = 0.07, n = 4)): increase | total NET-1 protein expression (NET-1 [6]): prominent and persistent increase

NC(N)=NCc1cccc(I)c1 [^123I-mIBG, meta-iodobenzylguanidine, reference compound]
cell-associated radioactivity, SK-N-BE(2)C (NET-1 [7]): greatest uptake | cell-associated radioactivity, Kelly (NET-1 [7]; SK-N-BE(2)C): least uptake | Tumour-to-background ratios compared with ^18F-mFBG [8]: greater

N=C(N)NCc1cccc([131I])c1 [^131I-mIBG, meta-iodobenzylguanidine]
clinical response (NB tumours): 0 to 57%
